This series in a line: Phase II AD study: plasma PK samples. Format: in vivo, human. To be noted: for concentration at 1 week: Week 1; for concentration at 2 week: Week 2; for concentration at 4 week: Week 4; for concentration at 8 week: Week 8. The procedure: Pharmacokinetics: A total of 5 blood samples for PK analysis of GSK2894512 were collected from each subject over the clinic visits at Weeks 1, 2, 4, 8, and 12. Plasma analysis was performed under the management of Bioanalytical Science and Toxicokinetics, DMPK, GSK.
Pharmacokinetics: Subjects with atopic dermatitis, BSA involvement >5% and <35%, excluding scalp, and Baseline IGA score of >3 at Baseline, participated in this study in which 2 concentrations of Tapinarof cream (0.5% and 1%) and a vehicle control were evaluated following application to all AD lesions (except on the scalp) once or twice daily for 12 weeks.
A total of 5 blood samples for PK analysis of Tapinarof were collected from each subject at the following clinic visits: Weeks 1, 2, 4, 8, and 12. Subjects were advised to provide PK samples during each of the following 3 time windows: 1 to 3 hours post application, 3 to 6 hours post application, and 6 to 12 hours post application.

[1] abbreviates: human, plasma, topical, 0.5 % cream BID, Subject 111301, 0.5% BID.
Setting [2] is: human, plasma, topical, 0.5 % cream BID, Subject 316851, 0.5% BID.
[3] abbreviates: human, plasma, topical, 1 % cream BID, Subject 110406, 1% BID.
[4] abbreviates: human, plasma, topical, 1 % cream BID, Subject 110604, 1% BID.

With `CC(C)c1c(O)cc(/C=C/c2ccccc2)cc1O` [Tapinarof, 3,5-Dihydroxy-4-isopropyl-trans-stilbene], the “subjects with plasma concentration >0.84 ng/mL (minipig NOAEL Cmax)” value is, setting by setting: (0.5% BID) 4 subjects; (0.5% QD) 2 subjects; (1% BID) 5 subjects; (1% QD) 2 subjects; (all Tapinarof groups, out of 247) 13 subjects. Besides, the concentration at 1 week reads like this: under setting [1], 6.09 ng/mL; under setting [2], 0.362 ng/mL; under setting [3], 0.233 ng/mL; under setting [4], 1.48 ng/mL. The concentration at 2 week reads like this: under setting [1], 0.438 ng/mL; under setting [2], 0.106 ng/mL; under setting [3], 0.347 ng/mL; under setting [4], 0.266 ng/mL; (human, plasma, topical, 1 % cream BID, Subject 316651, 1% BID) 181 ng/mL. The concentration at 4 week is, setting by setting: under setting [1], 0.649 ng/mL; under setting [3], 4.9 ng/mL; under setting [4], 0.43 ng/mL. Further, the concentration at 8 week is, setting by setting: under setting [2], 1.93 ng/mL; under setting [3], 0.514 ng/mL; under setting [4], 0.0716 ng/mL. In addition, the concentration at 12 week (human, plasma, topical, 1 % cream BID, Subject 110604, 1% BID, Week 12) was determined as 0.311 ng/mL. The same compound displayed a quantifiable plasma samples (of 753 samples from subjects on active treatment, LLOQ 0.04 ng/mL) of 348.
